The values that follow come from US20210145830A1, “MATERIALS AND METHODS FOR TREATING CANCER” (Mayo Foundation for Medical Education and Research, priority 2018, published 2021).

The test system of assay [1] is regulatory T cells (Treg). The experiment in a line: Regulatory T cell expansion (anti-CD3/CD28 beads, IL-2). It counts as cell-based, human. The protocol: (§1) FIGS. 19A-F. A. Inhibitory receptors expression in naïve T cells after TCR activation with CD3 stimulation in the increasing dose of TP0903. Naïve T cells were incubated with anti CD3/CD28 beads at a 1 to 3 ratio in the presence of TP0903. At day 3, T cells were stained with PD-1, TIM-3, LAG-3, and ICOS. […] Teff cells were isolated by negative selection using Human T Cell Isolation Kit. Tregs were isolated by negative selection using the human CD4^+CD127^lowCD25^+ Treg isolation kit. Teff and Treg were stimulated with anti CD3/CD28 beads and 400 U/ml of IL-2. At day 5, total T cells were evaluated via CountBright quantification. C. CART19 cytokine assay in the presence TP0903. UTDs or CART19 were incubated with Jeko in the presence of TP-0903 at a 1 to 1 ratio. Supernatant was harvested and analyzed by 32-plex Luminex array after 3 days. D. Inhibitory receptors expression in CART19 cells in the presence TP0903. UTDs or CART19 were incubated with Jeko at a 1 to 1 E/T ratio in the presence of TP0903. At day 5, T cells were stained with PD-1 (left), LAG-3 (right), and TIM-3. […] Cell killing was assessed by luminescence at 24 hours. […]
(§2) FIG. 21A-E. TP0903 modulates naïve T cells function upon stimulation of PMA/Ionomycin in vitro. […] At day 5, total T cells were evaluated via CountBright quantification.

The subject of another assay is Blood T cells. The experiment in a line: Correlative analysis of blood T cells in Phase I trial of TP0903 (NCT02729298). It counts as in vivo, patients with solid tumors. The text has this: FIG. 20. Multiparametric flow cytometric analysis of peripheral blood samples obtained before and after TP0903 treatment in patients with advanced solid tumors. A. Representative CD4^+CD25^+Foxp3^+ regulatory T cells (Treg) (upper right quadrants) at baseline (left) and after treatment (right). Data were pooled from three independent experiments with peripheral blood mononuclear cells from three donors. B. Representative flow plot of CD4^+ and CCR6^− negative cells.
The preclinical findings were validated in a correlative analyses of Phase I clinical trial of TP0903 for patients with solid tumors (NCT02729298). Blood T cells from 3 patients were isolated and analyzed before and a week after treatment with TP0903. […] These findings are further investigated in a Phase I clinical trial of TP0903 in relapsed/refractory CLL (NCT03572634).

Assay [2] relates to p-LCK, p38MAPK, GATA-3, T-bet in CART19 cells. The experiment in a line: Western blot of signaling molecules in stimulated CART19 cells. In kind it is cell-based.
For the next assay, the system named is Naïve T cells. Nature of the assay: Inhibitory receptor expression in stimulated naïve T cells. It counts as cell-based. As to conditions: PMA/Ionomycin. How it is done:
as §1, §2

For another assay, the system named is regulatory CART cells. Nature of the assay: Regulatory CART cells in CART19 co-culture with targets. The settings on record: increasing doses of TP0903; CART19 co-cultured with targets. In kind it is cell-based. The text has this:
FIG. 17. Increasing doses of TP0903 reduced regulatory CART cells when CART19 are co-cultured with their targets.

The mark [3] stands for this setting: 3 patients, before vs a week after treatment.
The mark [4] stands for this setting: CD4+ CCR6− cells, after TP0903 treatment.
[5] abbreviates: stimulated CART cells (FIG. 18).

With `CN1CCN(Cc2ccc(Nc3ncc(Cl)c(Nc4ccccc4S(=O)(=O)N(C)C)n3)cc2)CC1` [TP0903], the Treg expansion result in assay [1] (anti-CD3/CD28 beads + 400 U/ml IL-2, day 5) is “specifically reduced”. The “Treg versus effector T cells” value in assay [1] (treated with TP0903 for 3 days) was “preferential reduction”. Besides, in the assay on Blood T cells (setting [3]), the Th phenotype entry is given as “polarization to a Th1 phenotype”, the Tregs entry is “significant reduction” and the inhibitory receptors result is on record as “reduction”. In addition, in the assay with Blood T cells (setting [4]), the “CXCR3+CCR4+ (double positive) fraction” value is given as “increase” and the “CXCR3−CCR4+ fraction (Th2)” value is “Remarked reduction”. Also, in assay [2] (setting [5]), the GATA-3 entry is “reduction”, the P38 result is on record as “reduction”, the P-JNK entry was “reduction” and the T-bet entry is reported as “reduction”. Further, in assay [2] (stimulated CART cells, dose dependent (FIG. 18)), the “phospho LCK” value was “increase”. Also, the “inhibitory receptors (PD-1, LAG-3, TIM-3, and ICOS)” value in the assay with Naïve T cells (day 3, high dose TP0903) is recorded as “significantly downregulated”. Moreover, the inhibitory receptors entry with Naïve T cells (low dose TP0903) is “significant reduction”. In addition, the “regulatory CART cells” value in the assay on regulatory CART cells is reported as “reduced”.
